Laboratory results: US20120070442A1, “METHODS AND COMPOSITIONS FOR TREATING CANCER” (The Regents of the University of Colorado, a body corporate, priority 2007, published 2012)

Tested on: NSCLC
Test: Clinical response and survival of NSCLC patients treated with gefitinib
Type: in vivo, human
From the text: After appropriate approval from the institution and written informed consent for comprehensive use of molecular and pathologic analysis was received from each patient, NSCLC specimens were formalin-fixed, paraffin-embedded at Tokyo Medical University, Tokyo, Japan. Information on gender, age, histology, cigarette use, response, and survival was obtained for each patient. Tumor specimens were microdissected under stereoscopic microscopy (LEICA MZ12, Leica Microsystems, Wetzlar, Germany). DNA was extracted from tumor cells with the DNeasy Tissue Kit (Qiagen, Valencia, Calif.).
For all tests, a level of P<0.05 was considered statistically significant. Fisher's exact test for count data was used to analyze proportions among the factors studied. […] In this case, response or stable disease was considered a positive outcome while progressive disease was considered negative. The Kaplan-Meier method was used to estimate the probability of survival as a function of time. […] Significant differences between survival curves were analyzed using the log-rank test. Multivariate analysis of the relative importance of the factors to survival was performed using the Cox proportional-hazards method.
Each sample was analyzed in triplicate on a quantitation run. The ratio of miR-128b to CFTR DNA copies was determined. […]

Compound: COc1cc2ncnc(Nc3ccc(F)c(Cl)c3)c2cc1OCCCN1CCOCC1 [Gefitinib, N-(3-chloro-4-fluoro-phenyl)-7-methoxy-6-(3-morpholin-4-ylpropoxy)quinazolin-4-amine]
- survival after initiation of gefitinib therapy (NSCLC patients with deletion of miR-128b by DNA copy): 23.3 months
- survival after initiation of gefitinib therapy (NSCLC patients without deletion of miR-128b by DNA copy): 10.7 months
